From PMC5047857, “Screening, production, optimization and characterization of β-glucosidase using microbes from shellfish waste” (3 Biotech, 2016)

Tested on: T1, β-glucosidase
T1 construct: gene EC 3.2.1.21; native extracellular enzyme, partially purified from culture (ammonium sulfate, dialysis, Sephadex gel filtration); approx. 50 kDa by SDS-PAGE
Test: p-nitrophenol release, absorbance at […] nm; plot of activity against substrate concentration
Type: biochemical, Proteus mirabilis
Details: partially purified enzyme; substrate of the standard assay (pNPG); pH and temperature of the kinetic run not given

O=[N+]([O-])c1ccc(O[C@@H]2O[C@H](CO)[C@@H](O)[C@H](O)[C@H]2O)cc1 [pNPG, p-Nitrophenyl-β-D-glucopyranoside]
Km: 82 µM
